Data from paper PMC8952009 (Pharmaceuticals, 2022).
Entries after “also recorded” stand apart in the source; their conditions may differ.

What was measured:
SARS-CoV-2 M^pro = molecular target: T1, SARS-CoV-2 M^pro (Severe acute respiratory syndrome coronavirus 2, UniProt P0DTD1); test: biochemical; settings: for inhibition at 100 µM: read-out: Inhibition of enzymatic activity
T1 construct: This main protease is located in nsp5; purchased AnaSpec

SARS-CoV-1 M^pro = SARS-CoV-1 M^pro (Severe acute respiratory syndrome coronavirus, UniProt P0C6X7); test: biochemical; settings: for inhibition at 100 µM: read-out: Inhibition of enzymatic activity
MERS-CoV M^pro = MERS-CoV M^pro (Middle East respiratory syndrome-related coronavirus, UniProt K9N7C7); test: biochemical; settings: for inhibition at 100 µM: read-out: MERS-CoV M^pro activity inhibited to
[1] = molecular target: T2, recombinant M^pro of SARS-CoV-2 (Severe acute respiratory syndrome coronavirus 2, UniProt P0DTD1); test: biochemical; type: binding
T2 construct: This main protease is located in nsp5; purchased Bio-Techne

[2] = molecular target: recombinant M^pro of SARS-CoV-1 (Severe acute respiratory syndrome coronavirus, UniProt P0C6X7); test: biochemical; type: binding
[3] = Resazurin cell viability assay; settings: human, MRC-5 lung fibroblasts
[4] = system: human diploid MRC-5 lung fibroblasts; test: Resazurin cell viability assay; settings: MRC-5; tested range 0.3–100 µM; 72 h
[5] = molecular target: recombinant M^pro of MERS-CoV (Middle East respiratory syndrome-related coronavirus, UniProt K9N7C7); test: biochemical; type: binding
hepatitis C virus (HCV) = settings: chronic HCV infection; oral doses of 0.05 and 0.10 mg/kg/d; cited from earlier work
[6] = system: human immunodeficiency virus (HIV); settings: orally administered, 0.5 mg/kg daily; limited number of patients; cited from earlier work
SARS-CoV-2 = settings: cited from earlier work

Sequence of MERS-CoV M^pro (K9N7C7 3248-3553 limits assumed): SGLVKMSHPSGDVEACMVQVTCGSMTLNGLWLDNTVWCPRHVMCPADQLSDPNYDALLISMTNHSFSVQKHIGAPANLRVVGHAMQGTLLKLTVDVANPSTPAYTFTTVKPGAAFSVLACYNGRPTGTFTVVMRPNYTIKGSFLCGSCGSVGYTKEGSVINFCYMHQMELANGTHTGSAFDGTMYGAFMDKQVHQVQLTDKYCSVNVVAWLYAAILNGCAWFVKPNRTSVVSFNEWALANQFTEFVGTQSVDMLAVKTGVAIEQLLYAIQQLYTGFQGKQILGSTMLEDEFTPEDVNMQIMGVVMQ
Sequence of recombinant M^pro of MERS-CoV (K9N7C7 3248-3553 limits assumed): as above

| SMILES | IC50 (SARS-CoV-2 M^pro) | Percentage of activity of SARS-CoV-2 M^pro in the presence of compound (SARS-CoV-2 M^pro) | Therapeutic Index (SARS-CoV-2 M^pro) | inhibition at 100 µM (SARS-CoV-2 M^pro) | IC50 (SARS-CoV-1 M^pro) | Therapeutic Index (SARS-CoV-1 M^pro) | inhibition at 100 µM (MERS-CoV M^pro) | Kd [1] | Kd [2] | CC50 at 72 h [3] | Inhibitory effect on cell viability [4] | IC50 (MERS-CoV M^pro) | Therapeutic Index (MERS-CoV M^pro) | Kd [5] | Anti-HCV activity in patients (hepatitis C virus (HCV)) | Antiretroviral activity in clinical trial [6] | inhibition at 100 µM (SARS-CoV-1 M^pro) | IC50 value, inhibition of SARS-CoV-2 replication (SARS-CoV-2) |
| --- | --- | --- | --- | --- | --- | --- | --- | --- | --- | --- | --- | --- | --- | --- | --- | --- | --- | --- |
| COc1cc(-c2oc3cc(O)cc(O)c3c(=O)c2O)ccc1O [Isorhamnetin] | 8.42 ± 1.15 µM | 8.56% | 4.37 | > 50% | 13.1 ± 1.78 µM | 2.8 | 26.3% | 4.37 ± 3.9 µM | 3.6 ± 2.6 µM | 36.8 ± 3.4 µM | slight toxicity |  |  |  |  |  |  |  |
| Cc1cc(O)c2c(=O)c3c(O)cc(O)c4c5c(O)cc(O)c6c(=O)c7c(O)cc(C)c8c1c2c(c34)c(c78)c65 [Hypericin] | 23.3 ± 1.21 µM | 4.95% | 2.38 | > 50% | 19.4 ± 3.11 µM | 2.85 |  | 7.73 ± 6.5 µM | 25.5 ± 13.6 µM | 55.5 ± 2.2 µM | slight toxicity | 49.7 ± 5.41 µM | 1.11 | 54.9 ± 13.8 µM | without detectable anti-HCV activity | without antiretroviral activity |  |  |
| O=C(/C=C/c1ccc(O)c(O)c1)O[C@H](Cc1ccc(O)c(O)c1)C(=O)O [Rosmarinic acid] | 9.43 ± 0.46 µM | 8.28% |  | > 50% |  |  | 14.9% | 15.5 ± 4.77 µM |  |  | did not show significant inhibitory effects; also recorded: did not inhibit |  |  |  |  |  | 31% | 25.47 µg/mL |
| O=c1cc(-c2ccc(O)c(O)c2)oc2cc(O)cc(O)c12 [Luteolin] | 11.8 ± 1.27 µM | 10.10% |  | > 50% |  |  | 21.3% | 13.4 ± 2.7 µM |  |  |  |  |  |  |  |  | 44% |  |
